The species named for experiment [1] is Mus musculus. Briefly: Survival rate was determined as the ratio of mean survival days of treated group of mice to that of control group. It is filed as functional.
In experiment [2] the test system is Mus musculus. Description: Survival time of CDF1 mice inoculated with leukemia P388 cells determined after 40 days of intravenous administration of compound at 20 mg/kg on days 1, 5 and 9. It is filed as functional.

Residues, ends and D or L forms follow the SMILES beside them. *: point of attachment. X2 = CCc1c2c(nc3ccc(N*)cc13)-c1cc3c(c(=O)n1C2)COC(=O)[C@]3(O)CC; X1 = COCCOC(=O)*

As for `COc1cccc2c1C(=O)c1c(O)c3c(c(O)c1C2=O)C[C@@](O)(C(=O)CO)C[C@@H]3O[C@H]1C[C@H](N)[C@H](O)[C@H](C)O1` [DOXORUBICIN], the T/C in the experiment listed under Mus musculus [1] is listed as over 183%. The molecule further yielded a Survival time with Mus musculus [2] of over 14 days. Turning to `CCc1c2c(nc3ccc(OC(=O)N4CCC(N5CCCCC5)CC4)cc13)-c1cc3c(c(=O)n1C2)COC(=O)[C@]3(O)CC` [IRINOTECAN], the T/C in the experiment listed under Mus musculus [1] was 172%. Take `CCc1c2c(nc3ccc(NC(=O)CNC(=O)[C@H](Cc4ccccc4)NC(=O)[C@H](CC(C)C)NC(=O)CNC(=O)OCCOC)cc13)-c1cc3c(c(=O)n1C2)COC(=O)[C@]3(O)CC` (X1-GLFG-X2): in the experiment listed under Mus musculus [1], the T/C is reported as 170%. For the same molecule, the Survival time in the experiment on Mus musculus [2] amounted to 13 days.

What is called T/C is the ratio of treated to control.
